Laboratory results published in US12134620B2 (ARAXES PHARMA LLC, priority 2018, dated 2024).

Target: T1, KRAS G12C 1-169, his-tagged protein, GDP-loaded (Homo sapiens, UniProt P01116, G12C)
T1 construct: KRAS G12C 1-169, his-tagged protein, GDP-loaded; His tag
Assay: Biochemical assay: covalent modification of KRAS G12C, analysed by mass spectrometry (RapidFire/TOF or Q-Exactive); also: time not given here
Assay type: binding
Conditions: Modification activity, modification percentage from MS peak intensities
In short: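 Covalent adduct formation was quantified by intact-protein mass spectrometry, either TOF or C4 LC-Q Exactive Plus, as percent modified versus unmodified protein after deconvolution. Compounds at 8 or 32 μM final were incubated with 0.5 or 2 μM GDP-bound KRAS G12C(1-169)-His in Hepes/NaCl/MgCl2 buffer before acid quench.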

Row | SMILES | Binding %
1 | C=CC(=O)N1CC2(CCN(c3nc(=O)n(Cc4ccccc4)c(-c4c(C)ccc5[nH]ncc45)c3C#N)C2)C1 [Compound I-178, 4-(2-acryloyl-2,6-diazaspiro[3.4]octan-6-yl)-1-benzyl-6-(5-methyl-1H-indazol-4-yl)-2-oxo-1,2-dihydropyrimidine-5-carbonitrile] | + (+ indicates binding activity greater than 0% and up to 50%)
2 | C=CC(=O)N1CC2(CCN(c3c(C#N)c(-c4c(C)ccc5[nH]ncc45)[nH]c(=O)[n+]3Cc3ccccc3)C2)C1 [Compound I-179, 6-(2-acryloyl-2,6-diazaspiro[3.4]octan-6-yl)-1-benzyl-4-(5-methyl-1H-indazol-4-yl)-2-oxo-2H-1l4,3l2-pyrimidine-5-carbonitrile] | + (+ indicates binding activity greater than 0% and up to 50%)
3 | C=CC(=O)N1CC2(CCN(c3nc(C4CCN(C)CC4)nc(-c4c(C)ccc5[nH]ncc45)c3C#N)C2)C1 [Compound I-180, 4-(2-acryloyl-2,6-diazaspiro[3.4]octan-6-yl)-6-(5-methyl-1H-indazol-4-yl)-2-(1-methylpiperidin-4-yl)pyrimidine-5-carbonitrile] | ++ (++ indicates binding activity from 50 to 85%)
4 | C=CC(=O)N1CC2(CCN(c3nc(OCc4ccc(N5CCN(C)CC5)cn4)nc(-c4c(C)ccc5[nH]ncc45)c3C#N)C2)C1 [Compound I-181, 4-(2-acryloyl-2,6-diazaspiro[3.4]octan-6-yl)-6-(5-methyl-1H-indazol-4-yl)-2-((5-(4-methylpiperazin-1-yl)pyridin-2-yl)methoxy)pyrimidine-5-carbonitrile] | ++ (++ indicates binding activity from 50 to 85%)
5 | C=CC(=O)N1CC2(CCN(c3c(OC[C@@H]4CCCN4C)ncc(-c4c(C)ccc5cnn(C)c45)c3C#N)C2)C1 [Compound I-182, 3-(2-acryloyl-2,6-diazaspiro[3.4]octan-6-yl)-5-(1,6-dimethyl-1H-indazol-7-yl)-2-(((S)-1-methylpyrrolidin-2-yl)methoxy)isonicoti-nonitrile] | + (+ indicates binding activity greater than 0% and up to 50%)
6 | C=CC(=O)N1CC2(CCN(c3nc(CCN4CCCC4)nc(-c4c(C)ccc5[nH]ncc45)c3C#N)C2)C1 [Compound I-183, 4-(2-acryloyl-2,6-diazaspiro[3.4]octan-6-yl)-6-(5-methyl-1H-indazol-4-yl)-2-(2-(pyrrolidin-1-yl)ethyl)pyrimidine-5-carbonitrile] | + (+ indicates binding activity greater than 0% and up to 50%)
7 | C=CC(=O)N1CC2(CCN(c3c(OCCCN(C)C)ncc(-c4c(C)ccc5cnn(C)c45)c3C#N)C2)C1 [Compound I-184, 3-(2-acryloyl-2,6-diazaspiro[3.4]octan-6-yl)-5-(1,6-dimethyl-1H-indazol-7-yl)-2-(3-(dimethylamino)pro-poxy)isonicotinonitrile] | + (+ indicates binding activity greater than 0% and up to 50%)
8 | C=CC(=O)N1CC2(CCN(c3nc(OC[C@@H]4CCCN4C)cc(-c4c(C)ccc5[nH]ncc45)c3C#N)C2)C1 [Compound I-185, 2-(2-acryloyl-2,6-diazaspiro[3.4]octan-6-yl)-4-(5-methyl-1H-indazol-4-yl)-6-(((S)-1-methylpyrrolidin-2-yl)methoxy)nicotino-nitrile] | +++ (+++ indicates binding activity greater than 85%)
9 | C=CC(=O)N1CC2(CCN(c3nc(OCc4ccc(N5CCN(C)CC5)cn4)nc(-c4c(C)ccc5cnn(C)c45)c3C#N)C2)C1 [Compound I-186, 4-(2-acryloyl-2,6-diazaspiro[3.4]octan-6-yl)-6-(1,6-dimethyl-1H-indazol-7-yl)-2-((5-(4-methylpiperazin-1-yl)pyridin-2-yl)methoxy)pyrimidine-5-carbonitrile] | + (+ indicates binding activity greater than 0% and up to 50%)
10 | C=CC(=O)N1CC2(CCN(c3nc(N4CC(N(C)C)C4)cc(-c4c(C)ccc5[nH]ncc45)c3C#N)C2)C1 [Compound I-187, 2-(2-acryloyl-2,6-diazaspiro[3.4]octan-6-yl)-6-(3-(dimethylamino)azeti-din-1-yl)-4-(5-methyl-1H-indazol-4-yl)nicotinonitrile] | + (+ indicates binding activity greater than 0% and up to 50%)
11 | C=CC(=O)N1CC2(CCN(c3nc(N4CCC(N5CCN(C)[C@H](C)C5)CC4)nc(-c4c(C)ccc5[nH]ncc45)c3C#N)C2)C1 [Compound I-188, 4-(2-acryloyl-2,6-diazaspiro[3.4]octan-6-yl)-2-(4-((R)-3,4-dimethylpiperazin-1-yl)piperidin-1-yl)-6-(5-methyl-1H-indazol-4-yl)pyrimidine-5-carbonitrile] | +++ (+++ indicates binding activity greater than 85%)
12 | C=CC(=O)N1CC2(CCN(c3nc(-c4c(C)ccc5[nH]ncc45)nc(N4CCOCC4)n3)C2)C1 [Compound I-189, 1-(6-(4-(5-methyl-1H-indazol-4-yl)-6-morpholino-1,3,5-triazin-2-yl)-2,6-diazaspiro[3.4]octan-2-yl)prop-2-en-1-one] | + (+ indicates binding activity greater than 0% and up to 50%)
13 | C=CC(=O)N1CC2(CCN(c3nc(N4CCOCC4)nc(-c4c(C)ccc5[nH]ncc45)c3C#CC3CC3)C2)C1 [Compound I-190, 1-(6-(5-(cyclopropylethynyl)-6-(5-methyl-1H-indazol-4-yl)-2-morpholinopyrimidin-4-yl)-2,6-diazaspiro[3.4]octan-2-yl)prop-2-en-1-one] | + (+ indicates binding activity greater than 0% and up to 50%)
14 | C=CC(=O)N1CC2(CCN(c3nc(N4CCC(N5CCN(C)[C@@H](C)C5)CC4)nc(-c4c(C)ccc5[nH]ncc45)c3C#N)C2)C1 [Compound I-191, 4-(2-acryloyl-2,6-diazaspiro[3.4]octan-6-yl)-2-(4-((S)-3,4-dimethylpiperazin-1-yl)piperidin-1-yl)-6-(5-methyl-1H-indazol-4-yl)pyrimidine-5-carbonitrile] | +++ (+++ indicates binding activity greater than 85%)
15 | C=C(C)C(=O)N1CC2(CCN(c3nc(N4CCOCC4)nc(-c4c(C)ccc5[nH]ncc45)c3C#N)C2)C1 [Compound I-192, 4-(2-methacryloyl-2,6-diazaspiro[3.4]octan-6-yl)-6-(5-methyl-1H-indazol-4-yl)-2-morpholinopyrimidine-5-carbonitrile] | + (+ indicates binding activity greater than 0% and up to 50%)
16 | C=CC(=O)N1CC2(CCN(c3nc(N4CCC(N5CCN(C)[C@@H](C)C5)CC4)nc(-c4c(C)ccc5cnn(C)c45)c3C#N)C2)C1 [Compound I-193, 4-(2-acryloyl-2,6-diazaspiro[3.4]octan-6-yl)-6-(1,6-dimethyl-1H-indazol-7-yl)-2-(4-((S)-3,4-dimethylpiperazin-1-yl)piperidin-1-yl)pyrimidine-5-carbonitrile] | +++ (+++ indicates binding activity greater than 85%)
17 | C=CC(=O)N1CC2(CCN(c3nc(N4CCC(N5CCN(C)C6(CC6)C5)CC4)nc(-c4c(C)ccc5[nH]ncc45)c3C#N)C2)C1 [Compound I-194, 4-(2-acryloyl-2,6-diazaspiro[3.4]octan-6-yl)-6-(5-methyl-1H-indazol-4-yl)-2-(4-(4-methyl-4,7-diazaspiro[2.5]octan-7-yl)piperidin-1-yl)pyrimidine-5-carbonitrile] | +++ (+++ indicates binding activity greater than 85%)
